Results: patent US20150094220A1, “METHOD TO PREDICT THE SAFETY OF THE TREATMENT WITH A NICOTINIC CHOLINERGIC RECEPTOR AGONIST” (GENETRACER BIOTECH S.L, priority 2012, published 2015)

Assays:
[1] = Observational pharmacogenetic study: treatment suspension due to adverse effects in smokers treated with varenicline; format: in vivo, human
Method: (§1) In a study conducted on 807 patients from the Tobacco Addiction Units of 22 hospitals and health centers in Spain and Portugal, more than 300 SNPs relating to the relevant pathways with respect to the efficacy of the 3 first-line pharmacological tobacco cessation treatments were assessed: nicotine replacement therapy (NRT), bupropion and varenicline. The safety was assessed after three months of abstinence from tobacco consumption in relation to the presence of adverse effects which determined the reduction or withdrawal of the initially applied treatment.
(§2) The analysis process was carried out after applying the usual checks for correcting data entry errors. The status of the subjects was first characterized either as “cases” or as “controls”, depending on the safety results obtained after 3 months of follow-up after the establishment of the chosen tobacco cessation treatment. Those individuals in whom (a) it was necessary to reduce the dose of the chosen treatment due to the presence of treatment-related adverse effects, or (b) it was necessary to suspend or change the treatment due to intolerance to same according to the assessment of his/her doctor, were considered as “cases”. The different statistical analysis models thus provided information about the safety associated with the presence of a certain genetic pattern.
(§3) To assess the possibility of confounding biases as a result of the mixed population analysis, and also as a control for genotyping errors, the Hardy-Weinberg disequilibrium test was performed both in the “cases” and in the corresponding “controls”. The result of this test was assessed before analyzing the results obtained in the various logistic regression models which were used to assess the association between the specific SNPs and the safety results of the prescribed treatments. The following penetrance models were used in the logistic regression models: dominant, recessive, additive, over-dominant and log-additive. The statistical analyses were performed both with the allelic frequency and with the genotypic frequency, the latter being those which provide the most information about the associations to be replicated. All the results were presented as odds-ratios (OR) with the corresponding 95% confidence intervals and statistical significance value thereof.
(§4) Finally, the discriminating power of the different genetic indicators (SNPs) analyzed with respect to the safety results was assessed by means of […] and area under the curve analysis. The final purpose of this analysis strategy was to enable estimating the probability of adverse effects that a subject with a certain genotypic profile who starts a tobacco cessation treatment (particularly with varenicline) may have and adjusting and monitoring his/her treatment based on this information.
(§5) For the purpose of determining the pharmacogenetic profile associated with the safety of a pharmacological smoking cessation treatment, the results obtained in terms of abstinence from tobacco consumption after 3 months were evaluated in relation to the presence of adverse effects which determined the reduction or withdrawal of the initially applied treatment. The subjects were divided into three groups which were treated with NRT, bupropion or varenicline.
(§6) It is an observational study with the intervention of 21 Tobacco Addiction Units from the public health services in Spain and Portugal. A total of 807 subjects were invited to participate in the study, 798 of whom provided their sociodemographic and clinical data taking a test with 144 items. They also provided a biological sample for subsequent genotyping. 483 individuals were treated with varenicline. The information of both the phenotypic and genotypic variables was collected for 479 patients treated with varenicline before establishing the pharmacological treatment.
(§7) The clinical results were linked to the safety of the pharmacological treatments. […]

[2] = Observational pharmacogenetic study: dose reduction due to adverse effects in smokers treated with varenicline; format: in vivo, human; conditions: for Linear OR, dose reduction due to adverse effects: linear model
Method: as §1, §2, §3, §4, §5, §6, §7

[3] = 1 mg twice a day, 3-month treatment studies; cited from earlier work
[4] = oral; cited from earlier work
[5] = biological target: α4β2 neuronal nicotinic acetylcholine receptor subtype (Homo sapiens, UniProt P17787+P43681); conditions: selective partial agonist; cited from earlier work
Sequence of α4β2 neuronal nicotinic acetylcholine receptor subtype (P43681 29-627 limits assumed): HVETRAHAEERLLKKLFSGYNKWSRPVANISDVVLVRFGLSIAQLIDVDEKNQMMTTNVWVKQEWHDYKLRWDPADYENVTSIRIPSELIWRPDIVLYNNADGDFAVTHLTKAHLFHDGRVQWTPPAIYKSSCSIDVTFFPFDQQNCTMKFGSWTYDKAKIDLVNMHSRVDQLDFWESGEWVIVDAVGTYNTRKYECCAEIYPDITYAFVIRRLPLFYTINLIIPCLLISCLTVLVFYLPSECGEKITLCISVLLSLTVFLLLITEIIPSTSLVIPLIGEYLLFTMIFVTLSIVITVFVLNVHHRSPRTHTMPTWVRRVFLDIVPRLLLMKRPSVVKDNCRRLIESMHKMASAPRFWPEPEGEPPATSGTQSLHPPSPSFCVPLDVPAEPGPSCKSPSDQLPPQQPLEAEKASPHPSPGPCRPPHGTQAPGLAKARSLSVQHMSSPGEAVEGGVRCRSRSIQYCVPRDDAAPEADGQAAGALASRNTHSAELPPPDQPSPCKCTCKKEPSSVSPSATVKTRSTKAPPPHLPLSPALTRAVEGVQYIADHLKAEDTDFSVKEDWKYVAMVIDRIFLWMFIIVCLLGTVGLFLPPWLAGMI
Sequence of α4β2 neuronal nicotinic acetylcholine receptor subtype (P17787 26-502): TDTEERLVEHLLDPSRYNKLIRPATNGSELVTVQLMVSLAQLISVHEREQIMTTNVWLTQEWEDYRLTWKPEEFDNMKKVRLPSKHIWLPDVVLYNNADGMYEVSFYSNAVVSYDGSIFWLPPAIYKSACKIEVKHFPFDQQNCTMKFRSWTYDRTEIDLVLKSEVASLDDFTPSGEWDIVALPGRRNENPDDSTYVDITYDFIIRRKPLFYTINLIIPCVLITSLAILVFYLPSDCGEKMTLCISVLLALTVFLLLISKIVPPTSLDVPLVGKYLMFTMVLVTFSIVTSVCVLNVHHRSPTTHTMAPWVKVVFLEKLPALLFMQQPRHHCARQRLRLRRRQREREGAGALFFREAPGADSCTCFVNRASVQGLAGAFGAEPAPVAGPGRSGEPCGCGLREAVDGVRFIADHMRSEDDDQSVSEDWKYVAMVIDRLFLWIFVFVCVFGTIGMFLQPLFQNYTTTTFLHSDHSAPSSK

SMILES: c1cnc2cc3c(cc2n1)C1CNCC3C1 [varenicline, 7,8,9,10-tetrahydro-6,10-methane-6H-pyrazino[2,3-h][3]benzazepine]
- Linear OR, treatment suspension due to adverse effects ([1]; human, in vivo, 3 months): 2.43
- OR (95% CI), alleles, treatment suspension due to adverse effects ([1]; human, in vivo, 3 months): 2.41
- OR (95% CI), alleles, treatment suspension due to adverse effects ([1]; rs7146 (C19orf6) alleles C, T): 1.83
- OR, treatment suspension due to adverse effects ([1]; rs7146 (C19orf6) genotype C/C (reference)): 1.00
- OR, treatment suspension due to adverse effects ([1]; rs7146 (C19orf6) genotype C/T): 1.61
- OR, treatment suspension due to adverse effects ([1]; rs7146 (C19orf6) genotype T/T): 4.05
- Linear OR, treatment suspension due to adverse effects ([1]; rs7146 (C19orf6) genotype, linear model): 1.93
- OR (95% CI), alleles, treatment suspension due to adverse effects ([1]; rs477292 (OPRM1) alleles G, A): 1.91
- OR, treatment suspension due to adverse effects ([1]; rs477292 (OPRM1) genotype A/A): 3.54
- OR, treatment suspension due to adverse effects ([1]; rs477292 (OPRM1) genotype A/G): 2.13
- OR, treatment suspension due to adverse effects ([1]; rs477292 (OPRM1) genotype G/G (reference)): 1.00
- Linear OR, treatment suspension due to adverse effects ([1]; rs477292 (OPRM1) genotype, linear model): 1.99
- OR (95% CI), alleles, treatment suspension due to adverse effects ([1]; rs495491 (OPRM1) alleles T, C): 2.08
- OR, treatment suspension due to adverse effects ([1]; rs495491 (OPRM1) genotype C/C): 3.80
- OR, treatment suspension due to adverse effects ([1]; rs495491 (OPRM1) genotype C/T): 2.77
- OR, treatment suspension due to adverse effects ([1]; rs495491 (OPRM1) genotype T/T (reference)): 1.00
- Linear OR, treatment suspension due to adverse effects ([1]; rs495491 (OPRM1) genotype, linear model): 2.19
- OR (95% CI), alleles, treatment suspension due to adverse effects ([1]; rs3778151 (OPRM1) alleles T, C): 2.40
- OR, treatment suspension due to adverse effects ([1]; rs3778151 (OPRM1) genotype C/C): 8.48
- OR, treatment suspension due to adverse effects ([1]; rs3778151 (OPRM1) genotype C/T): 2.26
- OR, treatment suspension due to adverse effects ([1]; rs3778151 (OPRM1) genotype T/T (reference)): 1.00
- Linear OR, treatment suspension due to adverse effects ([1]; rs3778151 (OPRM1) genotype, linear model): 2.55
- OR (95% CI), alleles, treatment suspension due to adverse effects ([1]; rs7930792 (UBASH3B) alleles C, G): 0.52
- OR, treatment suspension due to adverse effects ([1]; rs7930792 (UBASH3B) genotype C/C (reference)): 1.00
- OR, treatment suspension due to adverse effects ([1]; rs7930792 (UBASH3B) genotype C/G): 0.58
- OR, treatment suspension due to adverse effects ([1]; rs7930792 (UBASH3B) genotype G/G): 0.21
- Linear OR, treatment suspension due to adverse effects ([1]; rs7930792 (UBASH3B) genotype, linear model): 0.52
- OR (95% CI), alleles, treatment suspension due to adverse effects ([1]; rs9479757 (OPRM1) alleles G, A): 3.27
- OR, treatment suspension due to adverse effects ([1]; rs9479757 (OPRM1) genotype A/A): 12.30
- OR, treatment suspension due to adverse effects ([1]; rs9479757 (OPRM1) genotype A/G): 3.46
- OR, treatment suspension due to adverse effects ([1]; rs9479757 (OPRM1) genotype G/G (reference)): 1.00
- Linear OR, treatment suspension due to adverse effects ([1]; rs9479757 (OPRM1) genotype, linear model): 3.47
- OR (95% CI), alleles, treatment suspension due to adverse effects ([1]; rs12423809 (C12orf36) alleles A, C): 1.91
- OR, treatment suspension due to adverse effects ([1]; rs12423809 (C12orf36) genotype A/A (reference)): 1.00
- OR, treatment suspension due to adverse effects ([1]; rs12423809 (C12orf36) genotype A/C): 1.59
- OR, treatment suspension due to adverse effects ([1]; rs12423809 (C12orf36) genotype C/C): 3.53
- Linear OR, treatment suspension due to adverse effects ([1]; rs12423809 (C12orf36) genotype, linear model): 1.87
- OR (95% CI), alleles, dose reduction due to adverse effects ([2]; rs763132 (ARHGAP18) alleles T, G): 0.43
- OR, dose reduction due to adverse effects ([2]; rs763132 (ARHGAP18) genotype G/G): 0.13
- OR, dose reduction due to adverse effects ([2]; rs763132 (ARHGAP18) genotype G/T): 0.49
- OR, dose reduction due to adverse effects ([2]; rs763132 (ARHGAP18) genotype T/T (reference)): 1.00
- Linear OR, dose reduction due to adverse effects ([2]; rs763132 (ARHGAP18) genotype): 0.44
- OR (95% CI), alleles, dose reduction due to adverse effects ([2]; rs1183035 (MAOB) alleles T, C): 0.28
- OR, dose reduction due to adverse effects ([2]; rs1183035 (MAOB) genotype C/C): 0.00
- OR, dose reduction due to adverse effects ([2]; rs1183035 (MAOB) genotype C/T): 0.83
- OR, dose reduction due to adverse effects ([2]; rs1183035 (MAOB) genotype T/T (reference)): 1.00
- Linear OR, dose reduction due to adverse effects ([2]; rs1183035 (MAOB) genotype): 0.42
- OR (95% CI), alleles, dose reduction due to adverse effects ([2]; rs4474069 (RAPGEF1) alleles C, T): 1.82
- OR, dose reduction due to adverse effects ([2]; rs4474069 (RAPGEF1) genotype C/C (reference)): 1.00
- OR, dose reduction due to adverse effects ([2]; rs4474069 (RAPGEF1) genotype C/T): 2.68
- OR, dose reduction due to adverse effects ([2]; rs4474069 (RAPGEF1) genotype T/T): 1.33
- Linear OR, dose reduction due to adverse effects ([2]; rs4474069 (RAPGEF1) genotype): 1.87
- treatment withdrawal rate due to adverse effects [3]: 12%
- withdrawal rate due to headache [3]: 0.6%
- withdrawal rate due to insomnia [3]: 1.2%
- withdrawal rate due to nausea [3]: 3%
- withdrawal rate due to sleep alterations [3]: 0.3%
- absorption [4]: complete
- systemic availability [4]: high
- time of maximum plasma concentrations after intake [4]: 3 to 4 h
- affinity [5]: high affinity
